Reference: patent US11332459B2 (TEIJIN PHARMA LIMITED, priority 2017, dated 2022)
Where a name gives a salt, the structure may show the parent alone.

Biological target: T1, human TRPC6 (Homo sapiens, UniProt Q9Y210)
T1 construct: expressed in transfected cells
T1 sequence (Q9Y210 1-931): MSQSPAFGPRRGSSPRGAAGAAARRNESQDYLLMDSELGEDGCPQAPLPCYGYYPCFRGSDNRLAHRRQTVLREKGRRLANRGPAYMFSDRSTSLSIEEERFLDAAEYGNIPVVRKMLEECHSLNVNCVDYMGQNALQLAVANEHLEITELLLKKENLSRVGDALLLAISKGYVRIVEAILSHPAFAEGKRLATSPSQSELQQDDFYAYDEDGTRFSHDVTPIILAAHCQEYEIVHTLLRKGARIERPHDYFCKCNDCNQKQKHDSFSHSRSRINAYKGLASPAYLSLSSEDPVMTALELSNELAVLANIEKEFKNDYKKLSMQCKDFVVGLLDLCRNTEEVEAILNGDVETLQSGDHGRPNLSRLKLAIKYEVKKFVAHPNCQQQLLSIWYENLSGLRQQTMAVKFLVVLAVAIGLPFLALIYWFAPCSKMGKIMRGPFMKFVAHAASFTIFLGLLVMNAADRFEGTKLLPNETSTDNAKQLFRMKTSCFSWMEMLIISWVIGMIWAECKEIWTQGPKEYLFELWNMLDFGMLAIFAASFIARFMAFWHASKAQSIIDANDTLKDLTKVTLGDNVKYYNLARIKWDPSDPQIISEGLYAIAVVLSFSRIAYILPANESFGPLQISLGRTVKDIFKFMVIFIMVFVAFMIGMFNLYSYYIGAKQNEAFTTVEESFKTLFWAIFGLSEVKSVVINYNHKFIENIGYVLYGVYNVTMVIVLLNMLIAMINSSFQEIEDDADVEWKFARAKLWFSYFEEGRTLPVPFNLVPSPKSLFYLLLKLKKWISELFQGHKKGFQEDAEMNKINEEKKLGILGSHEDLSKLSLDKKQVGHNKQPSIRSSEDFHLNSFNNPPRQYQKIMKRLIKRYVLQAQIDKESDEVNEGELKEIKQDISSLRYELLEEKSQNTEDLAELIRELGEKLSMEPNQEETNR
Experiment: TRPC6 calcium flux assay (FLIPR, OAG-stimulated calcium influx)
Type: cell-based
Details: HEK293 cells stably transfected with human TRPC6, read-out: hTRPC6 Potency
Summary of the method: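 IC50 derived by plotting background-corrected peak fluorescence (180 s window, normalized to OAG-triggered signal vs buffer) against dose. Stable human TRPC6 HEK293 line was dye-loaded, exposed to compound 25 min, then challenged with 50 uM final OAG in 2 mM Ca2+ HEPES buffer pH 7.2, 0.5% DMSO.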

| SMILES | IC50 |
| --- | --- |
| N[C@@H]1CN(c2nc3cc(Br)ccc3n2CC(=O)N2CCC2)CC[C@H]1F [Example 470, 2-(2-((3R,4R)-3-amino-4-fluoropiperidin-1-yl)-5-bromo-1H-benzo[d]imidazol-1-yl)-1-(azetidin-1-yl)ethan-1-one] | 219 nM |
| CN(C(=O)Cn1c(N2CC[C@@H](F)[C@H](N)C2)nc2cc(F)c(F)cc21)[C@H]1CC[C@H](O)CC1 [Example 637, 2-(2-((3R,4R)-3-amino-4-fluoropiperidin-1-yl)-5,6-difluoro-1H-benzo[d]imidazol-1-yl)-N-((1r,4R)-4-hydroxycyclohexyl)-N-methylacetamide] | 341 nM |
| N#Cc1ccc(Cn2c(N3CC[C@H](F)[C@H](N)C3)nc3c(F)cc(F)cc32)nc1 [Example 65, 6-((2-((3R,4S)-3-amino-4-fluoropiperidin-1-yl)-4,6-difluoro-1H-benzo[d]imidazol-1-yl)methyl)nicotinonitrile] | 0.598 nM |
| N[C@@H]1CN(c2nc3cc(F)c(F)cc3n2CC(=O)N2CCn3ncnc3C2)CC[C@H]1F [Example 646, 2-(2-((3R,4R)-3-amino-4-fluoropiperidin-1-yl)-5,6-difluoro-1H-benzo[d]imidazol-1-yl)-1-(5,6-dihydro-[1,2,4]triazolo[1,5-a]pyrazin-7(8H)-yl)ethanone] | 2310 nM |
| N[C@@H]1CN(c2nc3cc(F)c(F)cc3n2CC(=O)O)CC[C@H]1F [Example 437, 2-(2-((3R,4R)-3-amino-4-fluoropiperidin-1-yl)-5,6-difluoro-1H-benzo[d]imidazol-1-yl)acetic acid] | > 3750 nM |
| N[C@@H]1CCCN(c2nc3ccccc3n2Cc2ccc(F)c(F)c2)C1 [Example 390, (R)-1-(1-(3,4-difluorobenzyl)-1H-benzo[d]imidazol-2-yl)piperidin-3-amine] | 3570 nM |
| N#Cc1ccc(Cn2c(N3CC[C@](F)(CN)C3)nc3ccccc32)cc1 [Example 175, (S)-4-((2-(3-(aminomethyl)-3-fluoropyrrolidin-1-yl)-1H-benzo[d]imidazol-1-yl)methyl)benzonitrile 2,2,2-trifluoroacetate] | 1700 nM |
| C[C@H](c1ccc(Cl)cn1)n1c(N2CC[C@@H](F)[C@H](N)C2)nc2ccccc21 [Example 215, (3R,4R)-1-(1-((R)-1-(5-chloropyridin-2-yl)ethyl)-1H-benzo[d]imidazol-2-yl)-4-fluoropiperidin-3-amine hydrochloride] | 593 nM |
| CCN(CC(C)C#N)C(=O)Cn1c(N2CC[C@@H](F)[C@H](N)C2)nc2cc(F)c(F)cc21 (mixture of isomers) [Example 237, 2-(2-((3R,4R)-3-amino-4-fluoropiperidin-1-yl)-5,6-difluoro-1H-benzo[d]imidazol-1-yl)-N-(2-cyanopropyl)-N-ethylacetamide] | 223 nM |
| CN(C)C(=O)Cn1c(N2CC[C@@H](F)[C@H](N)C2)nc2c(F)cc(F)cc21 [Example 565, 2-(2-((3R,4R)-3-amino-4-fluoropiperidin-1-yl)-4,6-difluoro-1H-benzo[d]imidazol-1-yl)-N,N-dimethylacetamide] | 32.2 nM |
| N#Cc1ccc2c(c1)CC[C@@H]2n1c(N2CCC[C@H](N)C2)nc2ccccc21 [Example 424, (S)-1-(2-((S)-3-aminopiperidin-1-yl)-1H-benzo[d]imidazol-1-yl)-2,3-dihydro-1H-indene-5-carbonitrile] | 0.707 nM |
| N[C@@H]1CN(c2nc3cc(F)c(F)cc3n2CC(=O)N2CCC(OC(F)F)C2)CC[C@H]1F (stereo partly drawn) [Example 626, 2-(2-((3R,4R)-3-amino-4-fluoropiperidin-1-yl)-5,6-difluoro-1H-benzo[d]imidazol-1-yl)-1-(3-(difluoromethoxy)pyrrolidin-1-yl)ethanone] | 117 nM |
| CC1COCC(C)N1C(=O)Cn1c(N2CC[C@@H](F)[C@H](N)C2)nc2ccc(F)cc21 (stereo partly drawn) [Example 683, 2-(2-((3R,4R)-3-amino-4-fluoropiperidin-1-yl)-6-fluoro-1H-benzo[d]imidazol-1-yl)-1-(3,5-dimethylmorpholino)ethan-1-one] | 290 nM |
| N#Cc1ccc2c(c1)nc(N1CC[C@@H](F)[C@H](N)C1)n2Cc1ccc(C(F)(F)F)nc1 [Example 244, 2-((3R,4R)-3-amino-4-fluoropiperidin-1-yl)-1-((6-(trifluoromethyl)pyridin-3-yl)methyl)-1H-benzo[d]imidazole-5-carbonitrile hydrochloride] | > 3750 nM |
| N[C@@H]1CCCN(c2nc3ccccc3n2Cc2ccc(-n3cncn3)cc2)C1 [Example 371, (R)-1-(1-(4-(1H-1,2,4-triazol-1-yl)benzyl)-1H-benzo[d]imidazol-2-yl)piperidin-3-amine] | 6830 nM |
| CC(C)NC(=O)Cn1c(N2CC[C@@H](F)[C@H](N)C2)nc2cc(F)c(F)cc21 [Example 235, 2-(2-((3R,4R)-3-amino-4-fluoropiperidin-1-yl)-5,6-difluoro-1H-benzo[d]imidazol-1-yl)-N-isopropylacetamide] | 150 nM |
| CN[C@H]1CCCN(c2nc3ccccc3n2Cc2ccc(F)cn2)C1 [Example 253, (3S)-1-(1-((5-fluoro-2-pyridinyl)methyl)-1H-benzimidazol-2-yl)-N-methyl-3-piperidinamine] | 406 nM |
| N[C@@H]1CN(c2nc3ccc(F)cc3n2CC(=O)N2CCC2)CC[C@H]1F [Example 503, 2-(2-((3R,4R)-3-amino-4-fluoropiperidin-1-yl)-6-fluoro-1H-benzo[d]imidazol-1-yl)-1-(azetidin-1-yl)ethan-1-one] | 25.6 nM |
| N#Cc1ccc2nc(N3CC[C@H](F)[C@H](N)C3)n(CC(=O)N3CCC3)c2c1 [Example 287, 2-((3R,4S)-3-amino-4-fluoro-1-piperidinyl)-1-(2-(1-azetidinyl)-2-oxoethyl)-1H-benzimidazole-6-carbonitrile] | 10.7 nM |
| N#Cc1ccc(Cn2c(N3C[C@H]4CC[C@H](N)[C@H]4C3)nc3ccccc32)nc1 [Example 78, 6-((2-((3aR,4S,6aS)-4-aminohexahydrocyclopenta[c]pyrrol-2(1H)-yl)-1H-benzo[d]imidazol-1-yl)methyl)nicotinonitrile hydrochloride] | 70.7 nM |
| CC(CC#N)N(C)C(=O)Cn1c(N2CC[C@@H](F)[C@H](N)C2)nc2cc(F)c(F)cc21 (mixture of isomers) [Example 612, 2-(2-((3R,4R)-3-amino-4-fluoropiperidin-1-yl)-5,6-difluoro-1H-benzo[d]imidazol-1-yl)-N-(1-cyanopropan-2-yl)-N-methylacetamide] | 22.4 nM |
| N#Cc1ccc(Cn2c(N3CC[C@@H](CN)C3)nc3ccccc32)nc1 [Example 81, (S)-6-((2-(3-(aminomethyl)pyrrolidin-1-yl)-1H-benzo[d]imidazol-1-yl)methyl)nicotinonitrile hydrochloride] | 557 nM |
| CN(C)C(=O)Cn1c(N2CC[C@@H](F)[C@H](N)C2)nc2cc(C(F)(F)F)ccc21 [Example 592, 2-(2-((3R,4R)-3-amino-4-fluoropiperidin-1-yl)-5-(trifluoromethyl)-1H-benzo[d]imidazol-1-yl)-N,N-dimethylacetamide] | 1730 nM |
| N#Cc1ccc(Cn2c(N3CCC[C@H](N)C3)nc3ccc(Cl)cc32)cc1 [Example 421, (S)-4-((2-(3-aminopiperidin-1-yl)-6-chloro-1H-benzo[d]imidazol-1-yl)methyl)benzonitrile] | 0.54 nM |
